In PMC2922070 (Journal of peptide science : an official publication of the …, 2009):

How the values were obtained:
Format in all cases: biochemical
MK2 [1] = target: T1, MK2 (Homo sapiens, UniProt P49137); assay: Radiometric IC50 determination
MK2 [2] = target: T1, MK2; assay: Radiometric kinase activity; details: ± S.D. between two samples, SD
MK3 = MK3 (Homo sapiens, UniProt Q16644); assay: Radiometric kinase activity; details: ± S.D. between two samples, SD
CaMKI = CaMKI (Homo sapiens, UniProt Q14012); assay: Radiometric kinase activity; details: ± S.D. between two samples, SD
Sequence of CaMKI (Q14012 whole entry): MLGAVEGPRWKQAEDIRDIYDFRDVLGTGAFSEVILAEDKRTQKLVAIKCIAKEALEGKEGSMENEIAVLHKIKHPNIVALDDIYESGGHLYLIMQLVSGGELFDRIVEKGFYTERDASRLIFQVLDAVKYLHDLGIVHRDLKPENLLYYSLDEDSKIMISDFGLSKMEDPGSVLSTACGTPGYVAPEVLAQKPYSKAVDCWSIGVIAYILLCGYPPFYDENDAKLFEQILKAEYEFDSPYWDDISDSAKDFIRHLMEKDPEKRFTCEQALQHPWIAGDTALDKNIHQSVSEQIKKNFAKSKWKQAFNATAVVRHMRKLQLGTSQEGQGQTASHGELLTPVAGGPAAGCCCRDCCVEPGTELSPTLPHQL

MK5 = target: T2, MK5 (Homo sapiens, UniProt Q8IW41); assay: Radiometric kinase activity; details: ± S.D. between two samples, SD
T2 sequence (Q8IW41 1-473): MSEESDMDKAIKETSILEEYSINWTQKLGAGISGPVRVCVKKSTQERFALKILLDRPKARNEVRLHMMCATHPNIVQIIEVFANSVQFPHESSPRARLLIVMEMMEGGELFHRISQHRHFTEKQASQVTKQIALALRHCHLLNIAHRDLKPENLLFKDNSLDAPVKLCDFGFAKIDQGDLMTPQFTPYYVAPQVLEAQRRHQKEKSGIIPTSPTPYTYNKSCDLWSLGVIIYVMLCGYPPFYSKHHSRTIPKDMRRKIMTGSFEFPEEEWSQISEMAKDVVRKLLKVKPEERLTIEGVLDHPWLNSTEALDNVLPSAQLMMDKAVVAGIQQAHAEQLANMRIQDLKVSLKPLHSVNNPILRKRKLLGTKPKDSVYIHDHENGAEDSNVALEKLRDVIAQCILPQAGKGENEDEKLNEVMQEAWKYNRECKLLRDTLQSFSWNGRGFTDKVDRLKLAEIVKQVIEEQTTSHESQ

SAPK2a (p38α) = SAPK2a (p38α) (Homo sapiens, UniProt Q16539); assay: Radiometric kinase activity; details: ± S.D. between two samples, SD
Sequence of SAPK2a (p38α) (Q16539 whole entry): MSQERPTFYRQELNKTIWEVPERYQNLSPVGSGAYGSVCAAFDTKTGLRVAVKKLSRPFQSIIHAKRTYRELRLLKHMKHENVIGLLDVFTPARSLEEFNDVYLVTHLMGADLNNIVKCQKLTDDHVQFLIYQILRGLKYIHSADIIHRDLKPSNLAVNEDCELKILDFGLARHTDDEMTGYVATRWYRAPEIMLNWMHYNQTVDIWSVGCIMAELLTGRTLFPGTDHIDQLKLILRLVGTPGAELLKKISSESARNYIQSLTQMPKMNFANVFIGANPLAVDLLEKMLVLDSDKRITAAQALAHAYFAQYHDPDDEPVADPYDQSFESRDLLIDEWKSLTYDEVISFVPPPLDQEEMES

IRAK4 = target: T3, IRAK4 (Homo sapiens, UniProt Q9NWZ3); assay: Radiometric kinase activity; details: ± S.D. between two samples, SD
T3 sequence (Q9NWZ3 1-460): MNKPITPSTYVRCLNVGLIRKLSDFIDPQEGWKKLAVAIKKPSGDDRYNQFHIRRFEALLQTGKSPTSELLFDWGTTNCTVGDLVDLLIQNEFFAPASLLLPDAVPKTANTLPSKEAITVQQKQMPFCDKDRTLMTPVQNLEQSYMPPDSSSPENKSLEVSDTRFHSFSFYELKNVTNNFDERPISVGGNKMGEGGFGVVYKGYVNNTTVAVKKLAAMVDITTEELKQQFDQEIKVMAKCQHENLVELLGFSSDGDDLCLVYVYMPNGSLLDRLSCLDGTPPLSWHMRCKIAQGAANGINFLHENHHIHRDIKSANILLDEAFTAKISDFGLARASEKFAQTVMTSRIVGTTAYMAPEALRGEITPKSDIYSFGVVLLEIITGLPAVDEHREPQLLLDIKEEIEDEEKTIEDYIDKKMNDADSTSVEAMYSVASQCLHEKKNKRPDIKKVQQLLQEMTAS

MLCK = MLCK (Homo sapiens, UniProt Q9H1R3); assay: Radiometric kinase activity; details: ± S.D. between two samples, SD
Sequence of MLCK (Q9H1R3 2-596): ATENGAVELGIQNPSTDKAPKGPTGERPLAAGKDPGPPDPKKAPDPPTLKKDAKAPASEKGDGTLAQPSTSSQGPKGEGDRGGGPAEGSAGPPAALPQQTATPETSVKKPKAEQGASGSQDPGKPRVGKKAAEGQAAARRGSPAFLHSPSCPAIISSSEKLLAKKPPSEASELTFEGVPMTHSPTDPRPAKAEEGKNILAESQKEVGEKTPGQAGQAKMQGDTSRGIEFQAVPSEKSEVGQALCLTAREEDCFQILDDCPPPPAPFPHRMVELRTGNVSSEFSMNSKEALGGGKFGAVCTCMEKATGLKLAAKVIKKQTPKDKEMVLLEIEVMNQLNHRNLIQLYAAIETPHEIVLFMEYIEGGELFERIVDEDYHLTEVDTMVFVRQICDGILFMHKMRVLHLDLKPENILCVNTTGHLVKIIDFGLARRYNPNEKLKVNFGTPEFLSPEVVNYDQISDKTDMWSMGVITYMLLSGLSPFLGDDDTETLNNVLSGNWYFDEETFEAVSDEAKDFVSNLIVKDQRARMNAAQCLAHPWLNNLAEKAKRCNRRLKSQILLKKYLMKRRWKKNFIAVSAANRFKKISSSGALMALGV

PKBβ = PKBβ (Homo sapiens, UniProt P31751); assay: Radiometric kinase activity; details: SD; for Percentage kinase activity, PKBβ: peptide 300 μM, ± S.D. between two samples
Sequence of PKBβ (P31751 whole entry): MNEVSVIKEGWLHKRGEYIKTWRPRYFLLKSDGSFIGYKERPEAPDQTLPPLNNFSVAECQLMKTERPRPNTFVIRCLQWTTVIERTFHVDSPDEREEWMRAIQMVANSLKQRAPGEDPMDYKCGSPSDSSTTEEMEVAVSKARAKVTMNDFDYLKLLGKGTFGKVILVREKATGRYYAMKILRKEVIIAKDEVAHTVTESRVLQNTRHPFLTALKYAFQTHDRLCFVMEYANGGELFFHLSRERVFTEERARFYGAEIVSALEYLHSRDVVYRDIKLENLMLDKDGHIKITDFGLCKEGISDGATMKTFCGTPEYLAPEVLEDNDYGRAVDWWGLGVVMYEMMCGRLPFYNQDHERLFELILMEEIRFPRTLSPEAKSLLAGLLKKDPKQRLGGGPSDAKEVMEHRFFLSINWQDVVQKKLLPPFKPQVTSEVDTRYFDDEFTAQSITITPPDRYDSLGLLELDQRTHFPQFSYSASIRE

PKCδ = PKCδ (Homo sapiens, UniProt Q05655); assay: Radiometric kinase activity; details: ± S.D. between two samples, SD
Sequence of PKCδ (Q05655 whole entry): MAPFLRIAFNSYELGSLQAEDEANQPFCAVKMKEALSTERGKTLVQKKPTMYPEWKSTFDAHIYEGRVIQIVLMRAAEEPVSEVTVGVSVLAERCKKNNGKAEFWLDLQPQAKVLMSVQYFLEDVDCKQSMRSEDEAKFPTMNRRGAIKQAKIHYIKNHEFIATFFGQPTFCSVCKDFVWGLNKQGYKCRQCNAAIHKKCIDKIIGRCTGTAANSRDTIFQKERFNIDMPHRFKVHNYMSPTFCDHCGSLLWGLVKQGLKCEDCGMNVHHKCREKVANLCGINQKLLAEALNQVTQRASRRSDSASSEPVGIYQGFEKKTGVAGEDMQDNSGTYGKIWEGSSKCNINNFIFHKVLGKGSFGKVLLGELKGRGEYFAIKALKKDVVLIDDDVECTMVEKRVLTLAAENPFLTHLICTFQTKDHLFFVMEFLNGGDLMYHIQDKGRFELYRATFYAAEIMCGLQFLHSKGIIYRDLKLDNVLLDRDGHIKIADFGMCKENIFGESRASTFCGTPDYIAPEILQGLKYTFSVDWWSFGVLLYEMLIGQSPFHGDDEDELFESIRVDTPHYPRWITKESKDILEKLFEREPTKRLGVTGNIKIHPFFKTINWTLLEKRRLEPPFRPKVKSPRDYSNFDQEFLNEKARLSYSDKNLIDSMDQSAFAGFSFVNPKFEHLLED

ROCK-I = ROCK-I (Homo sapiens, UniProt Q13464); assay: Radiometric kinase activity; details: ± S.D. between two samples, SD
Sequence of ROCK-I (Q13464 whole entry): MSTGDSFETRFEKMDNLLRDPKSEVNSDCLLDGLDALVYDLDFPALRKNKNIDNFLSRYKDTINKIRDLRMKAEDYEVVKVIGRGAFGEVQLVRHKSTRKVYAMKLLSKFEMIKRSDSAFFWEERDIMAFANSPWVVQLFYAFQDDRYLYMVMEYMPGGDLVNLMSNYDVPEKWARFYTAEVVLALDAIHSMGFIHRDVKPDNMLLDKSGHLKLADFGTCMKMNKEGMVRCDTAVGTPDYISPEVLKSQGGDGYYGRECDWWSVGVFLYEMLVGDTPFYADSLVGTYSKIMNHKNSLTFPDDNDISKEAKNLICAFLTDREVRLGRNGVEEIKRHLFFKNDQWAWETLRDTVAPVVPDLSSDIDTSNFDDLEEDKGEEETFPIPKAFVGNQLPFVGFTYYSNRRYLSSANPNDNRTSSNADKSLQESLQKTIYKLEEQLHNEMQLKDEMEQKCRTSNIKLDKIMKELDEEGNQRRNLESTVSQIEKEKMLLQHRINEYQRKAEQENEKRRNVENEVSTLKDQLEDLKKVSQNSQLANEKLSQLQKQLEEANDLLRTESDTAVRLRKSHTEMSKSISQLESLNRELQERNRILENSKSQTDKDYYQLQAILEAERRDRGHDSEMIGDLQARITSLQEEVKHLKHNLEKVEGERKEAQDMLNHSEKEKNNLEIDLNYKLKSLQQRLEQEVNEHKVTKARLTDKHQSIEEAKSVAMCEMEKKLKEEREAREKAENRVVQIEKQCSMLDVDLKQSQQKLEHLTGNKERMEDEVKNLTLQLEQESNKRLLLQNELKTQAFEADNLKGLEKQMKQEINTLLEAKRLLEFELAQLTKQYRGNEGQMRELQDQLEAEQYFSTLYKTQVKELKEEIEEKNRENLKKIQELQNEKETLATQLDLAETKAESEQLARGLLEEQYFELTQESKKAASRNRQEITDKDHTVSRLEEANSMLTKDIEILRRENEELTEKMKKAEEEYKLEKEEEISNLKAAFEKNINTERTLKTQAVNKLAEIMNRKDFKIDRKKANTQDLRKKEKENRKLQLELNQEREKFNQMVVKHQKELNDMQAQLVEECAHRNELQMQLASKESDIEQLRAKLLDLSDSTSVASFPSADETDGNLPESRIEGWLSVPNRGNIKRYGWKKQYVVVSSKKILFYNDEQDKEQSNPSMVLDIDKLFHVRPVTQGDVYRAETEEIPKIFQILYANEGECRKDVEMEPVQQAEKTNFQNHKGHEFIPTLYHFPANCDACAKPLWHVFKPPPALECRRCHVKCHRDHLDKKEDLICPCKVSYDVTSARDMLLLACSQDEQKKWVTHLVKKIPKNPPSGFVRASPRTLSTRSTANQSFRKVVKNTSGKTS

MK2 [3] = target: T1, MK2; assay: Fluorescence-based kinase activity assay
[4] = read-out: Percentage kinase activity, PKBβ

Sequence of MK3 (Q16644 whole entry): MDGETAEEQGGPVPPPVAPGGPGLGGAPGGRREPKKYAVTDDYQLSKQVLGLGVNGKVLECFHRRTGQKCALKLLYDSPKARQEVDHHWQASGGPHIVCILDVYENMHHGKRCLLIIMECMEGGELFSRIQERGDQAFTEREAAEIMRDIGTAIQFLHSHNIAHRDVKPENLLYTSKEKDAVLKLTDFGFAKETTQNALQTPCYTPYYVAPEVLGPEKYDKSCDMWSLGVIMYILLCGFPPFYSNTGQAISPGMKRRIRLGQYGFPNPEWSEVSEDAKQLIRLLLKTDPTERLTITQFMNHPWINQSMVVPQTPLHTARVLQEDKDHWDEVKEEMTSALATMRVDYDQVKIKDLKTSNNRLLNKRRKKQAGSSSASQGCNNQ
T1 sequence (P49137 whole entry): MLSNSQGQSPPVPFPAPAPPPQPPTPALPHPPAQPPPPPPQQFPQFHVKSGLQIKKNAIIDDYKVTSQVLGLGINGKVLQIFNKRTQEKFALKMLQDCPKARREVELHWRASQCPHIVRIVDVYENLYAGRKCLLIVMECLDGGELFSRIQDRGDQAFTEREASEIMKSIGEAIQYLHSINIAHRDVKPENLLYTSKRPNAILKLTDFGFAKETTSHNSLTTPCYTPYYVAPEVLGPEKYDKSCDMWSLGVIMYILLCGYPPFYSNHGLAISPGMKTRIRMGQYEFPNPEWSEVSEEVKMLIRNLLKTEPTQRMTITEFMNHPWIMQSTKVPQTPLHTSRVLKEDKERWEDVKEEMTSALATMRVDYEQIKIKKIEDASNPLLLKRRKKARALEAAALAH

`CC[C@H](C)[C@H](NC(=O)[C@H](CCCNC(=N)N)NC(=O)[C@H](CCCNC(=N)N)NC(=O)[C@H](CC(C)C)NC(=O)[C@H](Cc1c[nH]c2ccccc12)NC(=O)[C@H](C)NC(=O)[C@H](CCCCN)NC(=O)[C@@H](NC(=O)[C@H](CCCNC(=N)N)NC(=O)[C@H](CCCNC(=N)N)NC(=O)[C@H](CC(C)C)NC(=O)[C@@H](N)Cc1c[nH]c2ccccc12)[C@@H](C)CC)C(=O)N[C@@H](CCCCN)C(=O)N[C@@H](C)C(=O)N[C@@H](CC(C)C)C(=O)N[C@@H](CC(N)=O)C(=O)N[C@@H](CCCNC(=N)N)C(=O)N[C@@H](CCC(N)=O)C(=O)N[C@@H](CC(C)C)C(=O)NCC(=O)N[C@H](C(=O)N[C@@H](C)C(=O)N[C@@H](C)C(N)=O)C(C)C` was tested, and the IC50 (MK2 [1]) was 0.74 µM, the “Percentage kinase activity, MK2” value (MK2 [2]; peptide 30 μM) was 2 ± 1% and the “Percentage kinase activity, MK3” value (MK3; peptide 30 μM) was 16 ± 2%. The “Percentage kinase activity, CaMKI” value (CaMKI; peptide 30 μM) was 9 ± 1%, the “Percentage kinase activity, MK5” value (MK5; peptide 30 μM) was 67 ± 9% and the “Percentage kinase activity, SAPK2a (p38α)” value (SAPK2a (p38α); peptide 30 μM) was 61 ± 7%. For the same compound, the “Percentage kinase activity, IRAK4” value (IRAK4; peptide 30 μM) was 12 ± 1%, the “Percentage kinase activity, MLCK” value (MLCK; peptide 30 μM) was 4 ± 1% and the activity at 30 µM (PKBβ; [4]) was 18 ± 2%. The “Percentage kinase activity, PKCδ” value (PKCδ; peptide 30 μM) was 11 ± 0% and the “Percentage kinase activity, ROCK-I” value (ROCK-I; peptide 30 μM) was 0 ± 1%.

In the case of YGRKKRRQRRR, the “inhibition of MK2 activity” value (MK2 [3]; peptide 25 μM) is reported as 47.7% and the “inhibition of MK2 activity” value (MK2 [3]; peptide 100 μM) is reported as 61.2%.

For YARAAARQARAKALARQLGVAA, the “Percentage kinase activity, MK2” value (MK2 [2]; peptide 300 μM) was 0 ± 0%, the “Percentage kinase activity, MK3” value (MK3; peptide 300 μM) was 5 ± 1% and the “Percentage kinase activity, MK5” value (MK5; peptide 300 μM) was 86 ± 2%. For the same compound, the “Percentage kinase activity, MLCK” value (MLCK; peptide 300 μM) was 9 ± 0% and the “Percentage kinase activity, PKBβ” value (PKBβ) was 17 ± 2%.

With `CC(C)C[C@H](NC(=O)[C@H](C)NC(=O)[C@H](CCCCN)NC(=O)[C@H](CCCNC(=N)N)NC(=O)[C@H](Cc1ccc(O)cc1)NC(=O)[C@H](CC(C)C)NC(=O)[C@H](CCCNC(=N)N)NC(=O)[C@H](C)NC(=O)[C@H](C)NC(=O)[C@H](CC(C)C)NC(=O)[C@H](CCCCN)NC(=O)[C@H](C)NC(=O)[C@H](Cc1ccccc1)NC(=O)[C@H](C)NC(=O)[C@@H](N)CCCCN)C(=O)N[C@@H](C)C(=O)N[C@@H](CCCNC(=N)N)C(=O)N[C@@H](CCC(N)=O)C(=O)N[C@@H](CC(C)C)C(=O)NCC(=O)N[C@H](C(=O)N[C@@H](C)C(=O)N[C@@H](C)C(N)=O)C(C)C` the IC50 (MK2 [1]) was 4.4 µM, the “Percentage kinase activity, MK2” value (MK2 [2]; peptide 100 μM) was 8 ± 1% and the “Percentage kinase activity, MK3” value (MK3; peptide 100 μM) was 17 ± 1%. The “Percentage kinase activity, CaMKI” value (CaMKI; peptide 100 μM) was 0 ± 2%, the “Percentage kinase activity, MK5” value (MK5; peptide 100 μM) was 148 ± 4% and the “Percentage kinase activity, SAPK2a (p38α)” value (SAPK2a (p38α); peptide 100 μM) was 59 ± 8%. For the same compound, the “Percentage kinase activity, IRAK4” value (IRAK4; peptide 100 μM) was 16 ± 2%, the “Percentage kinase activity, MLCK” value (MLCK; peptide 100 μM) was 2 ± 0% and the activity at 100 µM (PKBβ; [4]) was 28 ± 4%. The “Percentage kinase activity, PKCδ” value (PKCδ; peptide 100 μM) was 24 ± 3% and the “Percentage kinase activity, ROCK-I” value (ROCK-I; peptide 100 μM) was 29 ± 0%.

With `CC(C)C[C@H](NC(=O)[C@H](C)NC(=O)[C@H](CCCCN)NC(=O)[C@H](CCCNC(=N)N)NC(=O)[C@H](Cc1ccc(O)cc1)NC(=O)[C@H](CC(C)C)NC(=O)[C@H](CCCNC(=N)N)NC(=O)[C@H](C)NC(=O)[C@H](C)NC(=O)[C@H](CC(C)C)NC(=O)[C@H](CCCCN)NC(=O)[C@H](C)NC(=O)[C@@H](N)Cc1ccccc1)C(=O)N[C@@H](C)C(=O)N[C@@H](CCCNC(=N)N)C(=O)N[C@@H](CCC(N)=O)C(=O)N[C@@H](CC(C)C)C(=O)NCC(=O)N[C@H](C(=O)N[C@@H](C)C(=O)N[C@@H](C)C(N)=O)C(C)C` the IC50 (MK2 [1]) was 1.8 µM, the “Percentage kinase activity, MK2” value (MK2 [2]; peptide 100 μM) was 5 ± 2% and the “Percentage kinase activity, MK3” value (MK3; peptide 100 μM) was 10 ± 1%. For the same compound, the “Percentage kinase activity, CaMKI” value (CaMKI; peptide 100 μM) was 0 ± 2%, the “Percentage kinase activity, MK5” value (MK5; peptide 100 μM) was 131 ± 4% and the “Percentage kinase activity, SAPK2a (p38α)” value (SAPK2a (p38α); peptide 100 μM) was 30 ± 6%. The “Percentage kinase activity, IRAK4” value (IRAK4; peptide 100 μM) was 13 ± 4%, the “Percentage kinase activity, MLCK” value (MLCK; peptide 100 μM) was 1 ± 1% and the activity at 100 µM (PKBβ; [4]) was 16 ± 5%. For the same compound, the “Percentage kinase activity, PKCδ” value (PKCδ; peptide 100 μM) was 40 ± 2% and the “Percentage kinase activity, ROCK-I” value (ROCK-I; peptide 100 μM) was 25 ± 2%.

In the case of YARAAARQARAKALNRQLGVAA, the “Percentage kinase activity, MK2” value (MK2 [2]; peptide 300 μM) is reported as 10 ± 3%, the “Percentage kinase activity, MK3” value (MK3; peptide 300 μM) is reported as 19 ± 3% and the “Percentage kinase activity, CaMKI” value (CaMKI; peptide 300 μM) is reported as 8 ± 1%. The “Percentage kinase activity, MK5” value (MK5; peptide 300 μM) was 81 ± 3%, the “Percentage kinase activity, SAPK2a (p38α)” value (SAPK2a (p38α); peptide 300 μM) was 100 ± 6% and the “Percentage kinase activity, IRAK4” value (IRAK4; peptide 300 μM) was 68 ± 3%. For the same compound, the “Percentage kinase activity, PKBβ” value (PKBβ) was 96 ± 1%, the “Percentage kinase activity, PKCδ” value (PKCδ; peptide 300 μM) was 105 ± 2% and the “Percentage kinase activity, ROCK-I” value (ROCK-I; peptide 300 μM) was 95 ± 7%.
